Patent US20230073755A1, “USE OF IGF1 IN COMBINATION WITH IGFEC24 IN PREPARATION OF MEDICINE FOR PROMOTING TISSUE REPAIR AND REGENERATION” (Chongqing University, priority 2020, published 2023)

Legend:
Format in all cases: in vivo
neuronal cells = experiment: Neuroproliferation and neural differentiation (Edu / DCX, hippocampal dentate gyrus), 13-month-old C57 mice
Method: (§1) Female 13-month-old mice were divided into 2 groups, PBS group and IGF1-24 group, with 6 mice in each group, and the mice in each group were distinguished by ear tags for subsequent protein injection according to the different body weights of the mice. The mice in each group were injected with PBS and IGF1-24 for 7 consecutive days, and the recombinant protein IGF1-24 was injected at 100 μg/kg. After seven days of protein injection, Edu solution at a concentration of […] was injected intraperitoneally for seven consecutive days, so that the final total dose of each mouse reached 50 mg/kg. […]
Remove frozen sections from −20° C. and restore to room temperature; wash 3 times 10 min/time with PBS; permeabilize sections in 0.5% Triton for 30 min; wash 3 times 10 min/time with PBS; draw circles around the tissue with an immunohistochemistry pen and add 5% BSA dropwise for 1 h; aspirate 5% BSA and incubate at 4° C. with double cortin DCX primary antibody (1:500) dropwise overnight; PBS wash 3 times for 10 min/time; incubate FITC secondary antibody for 1 h; PBS wash 3 times for 10 min/time; incubate Edu dye for 1 h; PBS wash 3 times for 10 min/time; incubate DAPI for 10 min; PBS wash 3 times for 10 min/time; observe fluorescence under fluorescence microscope. […]

cardiomyocytes = experiment: Cardiomyocyte proliferation effect assay (Edu), 13-month-old C57 mice; settings: aged (13-month-old) female mice; IGF1-24 100 μg/kg for 7 days; PBS group 0.5%; FIG. 3
Method: as §1

skeletal muscle cells = experiment: Skeletal muscle cell proliferation effect (Edu / Desmin immunofluorescence of gastrocnemius muscle), SD rats; settings: gastrocnemius muscle sections, FIG. 8
Method: In certain embodiments, adult female SD rats were divided into five groups: PBS group, IGF1 group, IGF1Ec group, IGF1-24 group, and IGF1+IGF1Ec24 peptide group, with three rats in each group. The rats in each group were distinguished by ear clipping for subsequent protein injection according to the different body weights of the rats.
The rats in each group were injected with PBS, IGF1, IGF1Ec24 peptide, IGF1Ec and IGF1-24 for 7 consecutive days. Recombinant protein IGF1-24 was injected at 100 μg/kg, and the injection of the remaining proteins in each group was converted according to the molar amount of IGF1-24 injection as follows: 90 μg/kg for IGF1, 8.9 μg/kg for IGF1Ec24 peptide, 104 μg/kg for IGF1Ec.
After seven days of protein injection, the intraperitoneal injection of Edu solution at a concentration of 2.5 mg/kg was performed for seven days, so that the final total dose of each rat reached 50 mg/kg. […]

## IGF1-24: 97 amino acids: amino-terminal 70 identical to IGF1, carboxyl-terminal 24 identical to IGFEc24 peptide, joined by three Gly linkers (SEQ ID NO: 4)
Neuronal cells; PBS group 0.68%, FIG. 7
  immature neuronal cells (neural differentiation assay): 1.01%
Neuronal cells; hippocampal dentate gyrus, PBS group 0.24%, FIG. 5-6
  proliferation of neuronal cells: 0.47%
cardiomyocytes
  number of Edu-positive cardiomyocytes: 1.5%
Skeletal muscle cells
  number of Edu-positive skeletal muscle cells per square millimeter: 28 per square millimeter
